Patent US20240358692A1, “TREATMENT OF SCLERODERMA” (Aisa Pharma, Inc., priority 2023, published 2024)

Legend:
participants with SSc-RP [1] = assay: Average pain score recorded during weekly RP attacks (11-point Likert scale); assay type: in vivo, human; settings: for Average Pain Score Change From Baseline [Mean (SD)]: Table G
Excerpt: The absolute change in average pain score (11-point Likert scale) of weekly RP attacks from baseline to the end of each Dosing Period will be a secondary outcome variable. The sponsor-developed participant-informed diary will be used to record data. The average pain score of weekly RP attacks is defined as the total pain scores divided by total number of RP attacks within the last 7 days of each dosing period. Average of the last 7 days of screening assessments will be used as baseline for the analysis of all periods. The variable will be calculated similar to frequency data as before.

participants with SSc-RP [2] = assay: SHAQ - Standard Disability Index; assay type: in vivo, human; parameters: key to SHAQ Standard Disability Index, In-Clinic Visit (Day 12), Mean / SHAQ Standard Disability Index, In-Clinic Visit (Day 12), Median / SHAQ Standard Disability Index, Day 12, Mean / SHAQ Standard Disability Index, Day 12, Median: 0 = without any difficulty to 3 = unable to do
Excerpt: The standard, validated, patient reported outcome measures tool for SSc patients, the Scleroderma Health Assessment Questionnaire (SHAQ), will be used to assess the participant qualify of life. Details are attached in the Appendix. The participant quality of life will be scored, and a disability index calculated for each questionnaire completed by the patient at Screening and each in-clinic visit. The absolute change in participant quality of life from baseline to the end of each dosing period will be calculated similar to frequency data as before.
The SHAQ is used to calculate a Disability Index to assess the participant qualify of life. The eight categories assessed by the Disability Index are 1) dressing and grooming, 2) arising, 3) eating, 4) walking, 5) hygiene, 6) reach, 7) grip, and 8) common daily activities. For each of these categories, patients report the amount of difficulty they have in performing two or three specific activities.
There are four possible responses for the Disability Index questions: • Without any difficulty=0 • With some difficulty=1 • With much difficulty=2 • Unable to do=3 • The highest score reported by the patient for any component question of the eight categories determines the score for that category. • If a component question is left blank or the response is too ambiguous to assign a score, then the score for that category is determined by the remaining completed question(s). • If all component questions are blank or if more than one answer is given, then follow up with the respondent is required. • If the respondent's mark is between the response columns, then move it to the closest one. If it's directly between the two, move it to the higher one.
This question results in a new set of category scores that are computed by adjusting the score for each category, if necessary, based on the patient's use of an aid or device or assistance for that category. If either devices and/or help from another person are checked for a category, the score is set to “2”, unless the score is already “3” (i.e., scores of “0” or “1” are increased to “2”). For example, if the highest score for the dressing category is “1”, and the patient says they use a device for dressing, the computed category score would be “2”. The sum of the computed categories scores is then calculated and divided by the number of categories answered. This gives a score in the 0 to 3 range.

[3] = Any Cilnidipine (N = 17), Day 12, PP Population, Part A
[4] = Cilnidipine 10 mg, SSc patients, PP, Part A
[5] = Cilnidipine 20 mg (N = 3), Day 12, Patients with Diagnosis of SSc, Modified ITT Population - Part A
[6] = Cilnidipine 20 mg, SSc patients, PP, Part A
[7] = Pooled Cilnidipine 20 mg and Cilnidipine 20 mg + Tadalafil 5 mg (N = 8), Day 12, PP Population, Part A

COCCOC(=O)C1=C(C)NC(C)=C(C(=O)OC/C=C/c2ccccc2)C1c1cccc([N+](=O)[O-])c1 (stereo not drawn) [Cilnidipine]
Average Pain Score Change From Baseline [Mean (SD)] (participants with SSc-RP [1]; Cilnidipine 10 mg (n = 4)): 0.47
Average Raynaud's Pain (change) (participants with SSc-RP [1]; Cilnidipine 20 mg (n = 3)): 12%
Average Pain Score Change From Baseline [Mean (SD)] (participants with SSc-RP [1]; Cilnidipine 20 mg (n = 3)): −0.47
Average Raynaud's Pain (change) (participants with SSc-RP [1]; Pooled Cilnidipine (n = 7)): −27%
SHAQ Standard Disability Index, Change from Baseline, Mean (SD) (participants with SSc-RP [2]; [3]): −0.041 (0.1990)
SHAQ Standard Disability Index, Change from Baseline, Median (participants with SSc-RP [2]; [3]): 0.000
SHAQ Standard Disability Index, Percent Change from Baseline, Median (participants with SSc-RP [2]; [3]): 0.00%
SHAQ Standard Disability Index, In-Clinic Visit (Day 12), Median (participants with SSc-RP [2]; Cilnidipine 10 mg (N = 3), Patients with Diagnosis of SSc, Modified ITT Population - Part A): 1.125
SHAQ Standard Disability Index, Change from Baseline, Max (participants with SSc-RP [2]; [4]): 0.00
SHAQ Standard Disability Index, Change from Baseline, Min (participants with SSc-RP [2]; [4]): 0.00,
SHAQ Standard Disability Index, Change from Baseline, Q1 (participants with SSc-RP [2]; [4]): 0.000,
SHAQ Standard Disability Index, Change from Baseline, Q3 (participants with SSc-RP [2]; [4]): 0.000
SHAQ Standard Disability Index, Day 12, Max (participants with SSc-RP [2]; [4]): 1.50
SHAQ Standard Disability Index, Day 12, Mean (participants with SSc-RP [2]; [4]): 0.656
SHAQ Standard Disability Index, Day 12, Median (participants with SSc-RP [2]; [4]): 0.563
SHAQ Standard Disability Index, Day 12, Min (participants with SSc-RP [2]; [4]): 0.00,
SHAQ Standard Disability Index, Day 12, Q1 (participants with SSc-RP [2]; [4]): 0.000,
SHAQ Standard Disability Index, Day 12, Q3 (participants with SSc-RP [2]; [4]): 1.313
SHAQ Standard Disability Index, Percent Change from Baseline, Max (participants with SSc-RP [2]; [4]): 0.0
SHAQ Standard Disability Index, Percent Change from Baseline, Min (participants with SSc-RP [2]; [4]): 0.0,
SHAQ Standard Disability Index, Percent Change from Baseline, Q1 (participants with SSc-RP [2]; [4]): 0.00,
SHAQ Standard Disability Index, Percent Change from Baseline, Q3 (participants with SSc-RP [2]; [4]): 0.00
SHAQ Standard Disability Index, Change from Baseline, Mean (participants with SSc-RP [2]; [5]): −0.125
SHAQ Standard Disability Index, Change from Baseline, Median (participants with SSc-RP [2]; [5]): −0.125
SHAQ Standard Disability Index, Percent Change from Baseline, Mean (participants with SSc-RP [2]; [5]): −50.00%
SHAQ Standard Disability Index, Percent Change from Baseline, Median (participants with SSc-RP [2]; [5]): −50.00%
SHAQ Standard Disability Index, In-Clinic Visit (Day 12), Mean (participants with SSc-RP [2]; Cilnidipine 20 mg (N = 3), Patients with Diagnosis of SSc, Modified ITT Population - Part A): 0.125
% change in Standard Disability Index (participants with SSc-RP [2]; Cilnidipine 20 mg (n = 3), SHAQ, mITT Part A): −50%
SHAQ Standard Disability Index, Change from Baseline, Max (participants with SSc-RP [2]; [6]): 0.13
SHAQ Standard Disability Index, Change from Baseline, Mean (participants with SSc-RP [2]; [6]): −0.063
SHAQ Standard Disability Index, Change from Baseline, Median (participants with SSc-RP [2]; [6]): −0.063
SHAQ Standard Disability Index, Change from Baseline, Min (participants with SSc-RP [2]; [6]): −0.25,
SHAQ Standard Disability Index, Change from Baseline, Q1 (participants with SSc-RP [2]; [6]): −0.188,
SHAQ Standard Disability Index, Change from Baseline, Q3 (participants with SSc-RP [2]; [6]): 0.063
SHAQ Standard Disability Index, Day 12, Max (participants with SSc-RP [2]; [6]): 0.75
SHAQ Standard Disability Index, Day 12, Mean (participants with SSc-RP [2]; [6]): 0.281
SHAQ Standard Disability Index, Day 12, Median (participants with SSc-RP [2]; [6]): 0.188
SHAQ Standard Disability Index, Day 12, Min (participants with SSc-RP [2]; [6]): 0.00,
SHAQ Standard Disability Index, Day 12, Q1 (participants with SSc-RP [2]; [6]): 0.063,
SHAQ Standard Disability Index, Day 12, Q3 (participants with SSc-RP [2]; [6]): 0.500
SHAQ Standard Disability Index, Percent Change from Baseline, Max (participants with SSc-RP [2]; [6]): 20.0
SHAQ Standard Disability Index, Percent Change from Baseline, Mean (participants with SSc-RP [2]; [6]): −26.67
SHAQ Standard Disability Index, Percent Change from Baseline, Min (participants with SSc-RP [2]; [6]): −66.7,
SHAQ Standard Disability Index, Percent Change from Baseline, Q1 (participants with SSc-RP [2]; [6]): −66.67,
SHAQ Standard Disability Index, Percent Change from Baseline, Q3 (participants with SSc-RP [2]; [6]): 20.00
SHAQ Standard Disability Index, Change from Baseline, Mean (participants with SSc-RP [2]; [7]): −0.065
SHAQ Standard Disability Index, Change from Baseline, Median (participants with SSc-RP [2]; [7]): 0.000
SHAQ Standard Disability Index, Change from Baseline, Mean (SD) (participants with SSc-RP [2]; Pooled Cilnidipine (N = 8), Day 12, PP Population, Part A): −0.031 (0.1108)
